Assays:
Etoposide = compound: COc1cc([C@@H]2c3cc4c(cc3[C@@H](O[C@@H]3O[C@@H]5CO[C@@H](C)O[C@H]5[C@H](O)[C@H]3O)[C@H]3COC(=O)[C@H]23)OCO4)cc(OC)c1O [Etoposide]; conditions: max 10 µM
In short: (§1)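 Plates with 1536 wells received cancer cell lines in 7.5 μl of DMEM/F12 or RPMI containing 10% FBS. After 24 hours at 37°C and 5% CO2, cells were dosed for 72 hours with final DMSO typically 0.2%, and viability was read by CellTiter-Glo 2.0 luminescence scaled between blank-well and DMSO-well means. The single-agent IC50 was taken from a logistic fit of the dose responses made with a non-linear mixed effects model, that logistic curve having two parameters.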

Carboplatin = compound: C1CC(C1)(C(=O)[O-])C(=O)[O-].N.N.[Pt+2] [Carboplatin]; conditions: max 10 µM
In short: as §1

MK-2206 = compound: NC1(c2ccc(-c3nc4ccn5c(=O)[nH]nc5c4cc3-c3ccccc3)cc2)CCC1 [MK-2206]; conditions: max 10 µM
In short: as §1

Selumetinib = compound: Cn1cnc2c(F)c(Nc3ccc(Br)cc3Cl)c(C(=O)NOCCO)cc21 [Selumetinib]; conditions: max 10 µM
In short: as §1

AZD2811 = compound: CCN(CCO)CCCOc1ccc2c(Nc3cc(CC(=O)Nc4cccc(F)c4)[nH]n3)ncnc2c1 [AZD2811]; conditions: max 1 µM
In short: as §1

Venetoclax = compound: CC1(C)CCC(CN2CCN(c3ccc(C(=O)NS(=O)(=O)c4ccc(NCC5CCOCC5)c([N+](=O)[O-])c4)c(Oc4cnc5[nH]ccc5c4)c3)CC2)=C(c2ccc(Cl)cc2)C1 [Venetoclax]; conditions: max 1 µM
In short: as §1

Prexasertib = compound: COc1cccc(OCCCN)c1-c1cc(Nc2cnc(C#N)cn2)n[nH]1 [Prexasertib]; conditions: max 1 µM
In short: as §1

AZD4320 = compound: CN(CC[C@H](CSC1=CC=CC=C1)NC2=C(C=C(C=C2)S(=O)(=O)NC(=O)C3=CC=C(C=C3)N4CCC(CC4)[C@H](C5=CC=CC=C5C6=CC=C(C=C6)Cl)O)S(=O)(=O)C(F)(F)F)CCO [AZD4320]; conditions: max 1 µM
In short: as §1

AZD5991 = compound: Cc1c2c(nn1C)CSCc1cc(n(C)n1)CSc1cc(c3ccccc3c1)OCCCc1c(C(=O)O)n(C)c3c-2c(Cl)ccc13 [AZD5991]; conditions: max 1 µM
In short: as §1

AZD8186 = compound: C[C@@H](Nc1cc(F)cc(F)c1)c1cc(C(=O)N(C)C)cc2c(=O)cc(N3CCOCC3)oc12 [AZD8186]; conditions: max 10 µM
In short: as §1

Dasatinib = compound: CC1=C(C(=CC=C1)Cl)NC(=O)C2=CN=C(S2)NC3=CC(=NC(=N3)C)N4CCN(CC4)CCO [Dasatinib]; conditions: max 2 µM
In short: as §1

Taselisib = compound: Cc1nc(-c2cn3c(n2)-c2ccc(-c4cnn(C(C)(C)C(N)=O)c4)cc2OCC3)n(C(C)C)n1 [Taselisib]; conditions: max 10 µM
In short: as §1

AZD1775 = compound: C=CCn1c(=O)c2cnc(Nc3ccc(N4CCN(C)CC4)cc3)nc2n1-c1cccc(C(C)(C)O)n1 [AZD1775]; conditions: max 3 µM
In short: as §1

AZD1390 = compound: CC(C)n1c(=O)n(C)c2cnc3cc(F)c(-c4ccc(OCCCN5CCCCC5)nc4)cc3c21 [AZD1390]; conditions: max 0.3 µM
In short: as §1

SRA737 = compound: N#Cc1cnc(Nc2cc(NC[C@H]3CNCCO3)c(C(F)(F)F)cn2)cn1 [SRA737]; conditions: max 10 µM
In short: as §1

AZD5363 = compound: C1CN(CCC1(C(=O)N[C@@H](CCO)C2=CC=C(C=C2)Cl)N)C3=NC=NC4=C3C=CN4 [AZD5363]; conditions: max 10 µM
In short: as §1

Doxorubicin = compound: COc1cccc2c1C(=O)c1c(O)c3c(c(O)c1C2=O)C[C@@](O)(C(=O)CO)C[C@@H]3O[C@H]1C[C@H](N)[C@H](O)[C@H](C)O1 [Doxorubicin]; conditions: max 1 µM
In short: as §1

Gefitinib = compound: COc1cc2ncnc(Nc3ccc(F)c(Cl)c3)c2cc1OCCCN1CCOCC1 [Gefitinib]; conditions: max 10 µM
In short: as §1

Alisertib = compound: COc1cc(Nc2ncc3c(n2)-c2ccc(Cl)cc2C(c2c(F)cccc2OC)=NC3)ccc1C(=O)O [Alisertib]; conditions: max 10 µM
In short: as §1

SG3199 = compound: CC1=CN2[C@@H](C1)C=NC3=CC(=C(C=C3C2=O)OC)OCCCCCOC4=C(C=C5C(=C4)N=C[C@@H]6CC(=CN6C5=O)C)OC [SG3199]; conditions: max 0.001 µM
In short: as §1

Savolitinib = compound: C[C@@H](c1ccc2nccn2c1)n1nnc2ncc(-c3cnn(C)c3)nc21 [Savolitinib]; conditions: max 1 µM
In short: as §1

Gemcitabine = compound: Nc1ccn([C@@H]2O[C@H](CO)[C@@H](O)C2(F)F)c(=O)n1 [Gemcitabine]; conditions: max 0.3 µM
In short: as §1

Lapatinib = compound: CS(=O)(=O)CCNCc1ccc(-c2ccc3ncnc(Nc4ccc(OCc5cccc(F)c5)c(Cl)c4)c3c2)o1 [Lapatinib]; conditions: max 10 µM
In short: as §1

5-Fluorouracil = compound: O=c1[nH]cc(F)c(=O)[nH]1 [5-Fluorouracil]; conditions: max 20 µM
In short: as §1

SN-38 = compound: CCc1c2c(nc3ccc(O)cc13)-c1cc3c(c(=O)n1C2)COC(=O)[C@]3(O)CC [SN-38]; conditions: max 0.3 µM
In short: as §1

AZD0156 = compound: CN(C)CCCOc1ccc(-c2ccc3ncc4c(c3c2)n(C2CCOCC2)c(=O)n4C)cn1 [AZD0156]; conditions: max 3 µM
In short: as §1

AZD6738 = compound: C[C@@H]1COCCN1C2=NC(=NC(=C2)C3(CC3)[S@](=N)(=O)C)C4=C5C=CNC5=NC=C4 [AZD6738]; conditions: max 10 µM
In short: as §1

Palbociclib = compound: CC(=O)c1c(C)c2cnc(Nc3ccc(N4CCNCC4)cn3)nc2n(C2CCCC2)c1=O [Palbociclib]; conditions: max 10 µM
In short: as §1

Crizotinib = compound: C[C@@H](Oc1cc(-c2cnn(C3CCNCC3)c2)cnc1N)c1c(Cl)ccc(F)c1Cl [Crizotinib]; conditions: max 10 µM
In short: as §1

Paclitaxel = compound: CC(=O)O[C@H]1C(=O)[C@@]2(C)[C@H]([C@H](OC(=O)c3ccccc3)[C@]3(O)C[C@H](OC(=O)[C@H](O)[C@@H](NC(=O)c4ccccc4)c4ccccc4)C(C)=C1C3(C)C)[C@]1(OC(C)=O)CO[C@@H]1C[C@@H]2O [Paclitaxel]; conditions: max 3 µM
In short: as §1

AZD5153 = compound: COc1nnc2ccc(N3CCC(c4ccc(OCCN5CCN(C)C(=O)[C@H]5C)cc4)CC3)nn12 [AZD5153]; conditions: max 1 µM
In short: as §1

Olaparib = compound: O=C(c1cc(Cc2n[nH]c(=O)c3ccccc23)ccc1F)N1CCN(C(=O)C2CC2)CC1 [Olaparib]; conditions: max 10 µM
In short: as §1

AZD7648 = compound: Cc1cc2ncnn2cc1Nc1ncc2c(n1)n(C1CCOCC1)c(=O)n2C [AZD7648]; conditions: max 10 µM
In short: as §1

[1] = compound: O=C(Nc1ccc2[nH]nc(-c3ccncc3)c2c1)[C@@H]1CCN(CC(=O)N2CCN(c3ccc(-c4ncccn4)cc3)CC2)C1; conditions: max 5 µM
In short: as §1

Trametinib = compound: CC(=O)Nc1cccc(-n2c(=O)n(C3CC3)c(=O)c3c(Nc4ccc(I)cc4F)n(C)c(=O)c(C)c32)c1 [Trametinib]; conditions: max 1 µM
In short: as §1

Row | Cell Line | IC50, cell viability 72 h (Etoposide) | IC50, cell viability 72 h (Carboplatin) | IC50, cell viability 72 h (MK-2206) | IC50, cell viability 72 h (Selumetinib) | IC50, cell viability 72 h (AZD2811) | IC50, cell viability 72 h (Venetoclax) | IC50, cell viability 72 h (Prexasertib) | IC50, cell viability 72 h (AZD4320) | IC50, cell viability 72 h (AZD5991) | IC50, cell viability 72 h (AZD8186) | IC50, cell viability 72 h (Dasatinib) | IC50, cell viability 72 h (Taselisib) | IC50, cell viability 72 h (AZD1775) | IC50, cell viability 72 h (AZD1390) | IC50, cell viability 72 h (SRA737) | IC50, cell viability 72 h (AZD5363) | IC50, cell viability 72 h (Doxorubicin) | IC50, cell viability 72 h (Gefitinib) | IC50, cell viability 72 h (Alisertib) | IC50, cell viability 72 h (SG3199) | IC50, cell viability 72 h (Savolitinib) | IC50, cell viability 72 h (Gemcitabine) | IC50, cell viability 72 h (Lapatinib) | IC50, cell viability 72 h (5-Fluorouracil) | IC50, cell viability 72 h (SN-38) | IC50, cell viability 72 h (AZD0156) | IC50, cell viability 72 h (AZD6738) | IC50, cell viability 72 h (Palbociclib) | IC50, cell viability 72 h (Crizotinib) | IC50, cell viability 72 h (Paclitaxel) | IC50, cell viability 72 h (AZD5153) | IC50, cell viability 72 h (Olaparib) | IC50, cell viability 72 h (AZD7648) | IC50, cell viability 72 h [1] | IC50, cell viability 72 h (Trametinib)
1 | SK-OV-3 (Ovarian Carcinoma) | > 10000 nM | > 10000 nM | > 10000 nM | > 10000 nM | > 1000 nM | > 1000 nM | 35.5 nM | > 1000 nM | > 1000 nM | > 10000 nM | > 2000 nM | 2680 nM | 2450 nM | > 300 nM | > 10000 nM | > 10000 nM | > 1000 nM | > 10000 nM | > 10000 nM | > 1 nM | > 1000 nM | > 300 nM | > 10000 nM | > 20000 nM | > 300 nM | > 3000 nM | > 10000 nM | > 10000 nM | > 10000 nM | 732 nM | > 1000 nM | > 10000 nM | > 10000 nM | > 5000 nM | > 1000 nM
2 | SU-DHL-6 (B-Cell Non-Hodgkin's Lymphoma) | 1260 nM | > 10000 nM | 569 nM | > 10000 nM | > 1000 nM | 244 nM | > 1000 nM | 107 nM | 32.6 nM | 228 nM | 17.8 nM | 14.4 nM | 676 nM | > 300 nM | > 10000 nM | 301 nM | 181 nM | > 10000 nM | 1090 nM | > 1 nM | > 1000 nM | 36.4 nM | 4980 nM | > 20000 nM | 8.04 nM | 2970 nM | > 10000 nM | 3570 nM | 2840 nM | 4.04 nM | 48.9 nM | > 10000 nM | > 10000 nM | > 5000 nM | > 1000 nM
3 | SUP-T1 (T-Lymphoblastic Leukemia) | 805 nM | > 10000 nM | 7710 nM | > 10000 nM | > 1000 nM | > 1000 nM | 21.8 nM | > 1000 nM | > 1000 nM | > 10000 nM | > 2000 nM | 1730 nM | 272 nM | > 300 nM | 7670 nM | 3600 nM | 145 nM | > 10000 nM | 1590 nM | > 1 nM | > 1000 nM | 16.7 nM | > 10000 nM | > 20000 nM | 3.19 nM | > 3000 nM | 3280 nM | 2360 nM | 2730 nM | 13.6 nM | 117 nM | > 10000 nM | > 10000 nM | > 5000 nM | > 1000 nM
4 | SW1116 (Colorectal Carcinoma) | > 10000 nM | > 10000 nM | > 10000 nM | > 10000 nM | > 1000 nM | > 1000 nM | 824 nM | > 1000 nM | > 1000 nM | > 10000 nM | > 2000 nM | > 10000 nM | > 3000 nM | > 300 nM | > 10000 nM | > 10000 nM | > 1000 nM | > 10000 nM | > 10000 nM | > 1 nM | > 1000 nM | > 300 nM | > 10000 nM | > 20000 nM | > 300 nM | > 3000 nM | > 10000 nM | > 10000 nM | > 10000 nM | 2740 nM | > 1000 nM | > 10000 nM | > 10000 nM | > 5000 nM | 242 nM
5 | SW1271 (Small Cell Lung Carcinoma) | > 10000 nM | > 10000 nM | > 10000 nM | > 10000 nM | > 1000 nM | > 1000 nM | 137 nM | > 1000 nM | > 1000 nM | > 10000 nM | > 2000 nM | > 10000 nM | 1970 nM | > 300 nM | > 10000 nM | > 10000 nM | > 1000 nM | > 10000 nM | > 10000 nM | > 1 nM | > 1000 nM | > 300 nM | > 10000 nM | > 20000 nM | 143 nM | > 3000 nM | > 10000 nM | > 10000 nM | > 10000 nM | 630 nM | 947 nM | > 10000 nM | > 10000 nM | > 5000 nM | 614 nM
